In paper PMC8245773, “Brevibacillin 2V, a Novel Antimicrobial Lipopeptide With an Exceptionally Low Hemolytic Activity” (Frontiers in Microbiology, 2021):
Read-outs that look alike come from different tables or passages of the source. *1 amine or outer side, *2 acyl side, *3 side chain or, on linkers, in order; H or OH if unused. Where a SMILES comes first, the peptide text is derived from it. [ ]: non-standard residue; d: D form. The star is where a group is joined. X2 = CC=C(N[*:1])C(=O)[*:2]; dOrn = NCCC[C@@H](N)C(=O)O; Valol = CC(C)[C@@H](CO)N*; X1 = CCC(C)C(O)C(=O)*

Key:
[1] = tested on: human erythrocytes; test: Hemolytic activity
Description: This assay was performed as per the method described in previous studies ([Ling et al., 2015]; [Li et al., 2018]). Briefly, erythrocytes were isolated from a healthy human volunteer donor (ordered from Sanquin, Netherlands^1) and washed with phosphate-buffered saline (PBS) three times. After that, peptides were added at final concentrations of 128, 64, 32, 16, 8, 4, 2, 1, and 0 mg/L in PBS containing 2% (v/v) erythrocytes. The cells were incubated at 37°C for 1 h and centrifuged for 5 min at 8,000 g. The supernatant was transferred to a 96-well plate, and the absorbance was measured at a wavelength of 450 nm with a Thermo Scientific Varioskan^TM LUX multimode microplate reader. The absorbance relative to the positive control, which was treated with 10% Triton X-100, was defined as the percentage of hemolysis. The 50% human blood cell hemolysis concentration (HC50) of peptides was calculated as described in previous studies ([Reed and Muench, 1938]).
(§1) GraphPad Prism 7.0 was used to fit the data of hemolytic assay and cytotoxicity assay in Figure 3. The experiments were conducted in triplicate, and data are presented as the mean value of triplicate experiments. Data Explorer Software was used to analyze the MALDI-TOF data; Thermo Scientific Xcalibur software was used to analyze the LC–MS/MS data. The statistical significance of the data was assessed using Duncan’s multiple-range test with the software SPSS Statistics 19.0. P-values less than 0.05 were considered to be statistically significant.

[2] = tested on: HepG2 cells; details: for HepG2 CC50: 24 h
Description: The cytotoxicity of brevibacillins was evaluated on HepG2 cells by using the XTT (Cell Proliferation Kit XTT, AppliChem) assay ([Roehm et al., 1991]). HepG2 cells [in Dulbecco’s modified Eagle’s medium (DMEM) supplemented with 10% fetal bovine serum] were seeded into 96-well plates and incubated at 37°C with 5% CO2. After 24 h, the medium was replaced with a fresh medium (DMEM with 2% FBS, 100 μl per well) containing different concentrations of brevibacillins ([Zhao et al., 2017]). After 24 h of incubation, the XTT reagent was added to the cultures according to the manufacturer’s instructions, and the plates were incubated at 37°C for 2 h with 5% CO2. Subsequently, the absorbance values were measured by using a Varioskan^TM LUX multimode microplate reader (Thermo Fisher Scientific) at 485 nm (reference, 690 nm). The 50% cell toxicity (CC50) of peptides was calculated as described in a previous study ([Reed and Muench, 1938]).
as §1

[3] = cited from earlier work
Description: For cytotoxicity assays, HepG2 cells were incubated in the presence of brevibacillin concentrations ranging from 2 to 64 mg/L. After 24 h of incubation, cell viability was determined using an XTT kit.

Molecule: CC=C(NC(=O)C(O)C(C)CC)C(=O)N[C@@H](CC(C)C)C(=O)N[C@H](CCCN)C(=O)N[C@H](C(=O)N[C@H](C(=O)N[C@H](C(=O)N[C@H](CCCCN)C(=O)N[C@H](C(=O)N[C@H](C(=O)N[C@@H](CCCCN)C(=O)N[C@H](Cc1ccc(O)cc1)C(=O)N[C@@H](CC(C)C)C(=O)N[C@H](CO)C(C)C)C(C)C)C(C)C)C(C)C)C(C)C)C(C)C (stereo partly drawn) [brevibacillin 2V] (X1-[X2]L[dOrn]VVV[dK]VVK[dY]L-Valol)
- hemolytic activity at 128 mg/L ([1]; 128 mg/L, human erythrocytes, 37°C, 1 h): No hemolytic activity
- HC50 (concentration that causes 50% hemolysis of human red blood cells) ([1]; 1 h): > 128 mg/L
- CC50 (HepG2) relative to MIC values against bacterial pathogens [2]: 23 fold
- cytotoxicity to HepG2 cells at 32 mg/L [2]: no cytotoxicity
- HepG2 CC50 [2]: 45.49 ± 0.24 µg/mL

Molecule: CC=C(NC(=O)C(O)C(C)CC)C(=O)N[C@@H](CC(C)C)C(=O)N[C@H](CCCN)C(=O)N[C@H](C(=O)N[C@H](C(=O)N[C@H](C(=O)N[C@H](CCCCN)C(=O)N[C@H](C(=O)N[C@H](C(=O)N[C@@H](CCCCN)C(=O)N[C@H](Cc1ccc(O)cc1)C(=O)N[C@@H](CC(C)C)C(=O)N[C@H](CO)C(C)C)C(C)C)[C@@H](C)CC)C(C)C)[C@@H](C)CC)[C@@H](C)CC (stereo partly drawn) [brevibacillin I] (X1-[X2]L[dOrn]IIV[dK]IVK[dY]L-Valol)
- hemolytic activity at 64 mg/L [1]: completely lysed
- CC50 (HepG2) relative to MIC values against bacterial pathogens [2]: 2.5- to fivefold
- cytotoxicity to HepG2 cells at 16 mg/L [2]: all of the HepG2 cells were killed
- HepG2 CC50 [2]: 7.38 ± 0.30 µg/mL

Molecule: CC=C(NC(=O)C(O)C(C)CC)C(=O)N[C@@H](CC(C)C)C(=O)N[C@H](CCCN)C(=O)N[C@H](C(=O)N[C@H](C(=O)N[C@H](C(=O)N[C@H](CCCCN)C(=O)N[C@H](C(=O)N[C@H](C(=O)N[C@@H](CCCCN)C(=O)N[C@H](Cc1ccc(O)cc1)C(=O)N[C@@H](CC(C)C)C(=O)N[C@H](CO)C(C)C)C(C)C)C(C)C)C(C)C)C(C)C)[C@@H](C)CC (stereo partly drawn) [brevibacillin V] (X1-[X2]L[dOrn]IVV[dK]VVK[dY]L-Valol)
- hemolytic activity at 128 mg/L [1]: completely lysed
- HC50 (concentration that causes 50% hemolysis of human red blood cells) ([1]; 1 h): 73.1 ± 1.4 mg/L
- CC50 (HepG2) relative to MIC values against bacterial pathogens [2]: 2.5- to fivefold
- cytotoxicity to HepG2 cells at 16 mg/L [2]: all of the HepG2 cells were killed
- HepG2 CC50 [2]: 9.89 ± 0.67 µg/mL

Molecule: CC=C(NC(=O)C(O)C(C)CC)C(=O)N[C@@H](CC(C)C)C(=O)N[C@H](CCCN)C(=O)N[C@H](C(=O)N[C@H](C(=O)N[C@H](C(=O)N[C@H](CCCCN)C(=O)N[C@H](C(=O)N[C@H](C(=O)N[C@@H](CCCCN)C(=O)N[C@H](Cc1ccc(O)cc1)C(=O)N[C@@H](CC(C)C)C(=O)N[C@H](CO)C(C)C)C(C)C)C(C)C)C(C)C)[C@@H](C)CC)[C@@H](C)CC (stereo partly drawn) [brevibacillin] (X1-[X2]L[dOrn]IIV[dK]VVK[dY]L-Valol)
- hemolytic activity at 64 mg/L [1]: completely lysed
- HC50 (concentration that causes 50% hemolysis of human red blood cells) ([1]; 1 h): 25.1 ± 0.1 mg/L
- CC50 (HepG2) relative to MIC values against bacterial pathogens [2]: 2.5- to fivefold
- cytotoxicity to HepG2 cells at 16 mg/L [2]: all of the HepG2 cells were killed
- HepG2 CC50 [2]: 5.21 ± 0.01 µg/mL

Molecule: bogorol
- CC50 [3]: below 8 mg/L
